Measurements as given in US20080221056A1, “Early Detection and Prognosis of Colon Cancers” (JOHNS HOPKINS UNIVERSITY, priority 2007, published 2008).

Test system: HCT116 cells
Assay: Whole transcriptome microarray of gene re-expression in drug-treated CRC cells (11 hypermethylated guide genes)
Format: cell-based, human
Description: Cell culture and treatment. HCT116 cells and isogenic genetic knockout derivatives were maintained as previously described (14). For drug treatments, log phase CRC cells were cultured in McCoys 5A media (Invitrogen) containing 10% BCS and 1× penicillin/streptomycin with 5 μM 5aza-deoxycytidine (DAC) (Sigma; stock solution: 1 mM in PBS) for 96 hours, replacing media and DAC every 24 hours. Cell treatment with 300 nM Trichostatin A (Sigma; stock solution: 1.5 mM dissolved in ethanol) was performed for 18 hours. Control cells underwent mock treatment in parallel with addition of equal volume of PBS or ethanol without drugs.
Microarray analysis. Total RNA was harvested from log phase cells using Triazol (Invitrogen) and the RNeasy kit (Qiagen) according to the manufacturers instructions, including a DNAase digestion step. RNA was quantified using the Nanoprop ND-100 followed by quality assessment with 2100 Bioanalyzer (Agilent Technologies). RNA concentrations for individual samples were greater than 200 ng/ul, with 28s/18s ratios greater than 2.2 and RNA integrity of 10 (10 scored as the highest). Sample amplification and labeling procedures were carried out using the Low RNA Input Fluorescent Linear Amplification Kit (Agilent Technologies) according to the manufacturers instructions. The labeled cRNA was purified using the RNeasy mini kit (Qiagen) and quantified. RNA spike-in controls (Agilent Technologies) were added to RNA samples before amplification. 0.75 microgram of samples labeled with Cy3 or Cy5 were mixed with control targets (Agilent Technologies), assembled on Oligo Microarray, hybridized, and processed according to the Agilent microarray protocol. Scanning was performed with the Agilent G2565BA microarray scanner using settings recommended by Agilent Technologies.
Data analysis. All arrays were subject to quality checks recommended by the manufacturer. […] The log ratio of red signal to green signal was calculated after background-subtraction and LoEss normalization as implemented in the limma package from Bioconductor (25,26). […]

Row | SMILES | guide genes increased 1.3 fold or more (total) (5 μM DAC for 96 hours, 11 known hypermethylated, silenced guide genes) [%] | guide genes increased 2-fold or more (5 μM DAC for 96 hours, 11 known hypermethylated, silenced guide genes (5 of 11)) [%] | response of guide gene expression to TSA (300 nM Trichostatin A for 18 hours, zone = expression increase <1.4 fold)
1 | Nc1ncn([C@H]2C[C@H](O)[C@@H](CO)O2)c(=O)n1 [DAC, 5-aza-2′-deoxycytidine] | 73 | 45 | 
2 | CC(/C=C/C(=O)NO)=C\[C@@H](C)C(=O)c1ccc(N(C)C)cc1 [TSA, trichostatin A] |  |  | All tested genes remained within the TSA non-responsive zone
